Measurements from paper PMC12775434, “Ultra-large virtual screening unveils potent agonists of the neuromodulatory orphan receptor GPR139” (Nature Communications, 2025).
Where “and” joins values, the source holds several entries; their conditions need not be identical. Equal entries are not always repeated.

What was measured:
GPR139 (Gi2 activation) = target: T1, GPR139 (Gi2 activation) (Homo sapiens, UniProt Q6DWJ6); test: BRET G protein activation (dissociation) assay, Gi2, HEK293A; format: cell-based; conditions: for Emax: HEK293-A, normalized to JNJ-63533054 (JNJ(S)); for EC50: Supplementary Table 6, read-out: pEC50 Gi2 (converted); for G protein activation, Gi2: individual replicates
T1 construct: expressed in transfected cells; host or cells: HEK293A (transient, Lipofectamine 2000)
T1 sequence (Q6DWJ6 1-353): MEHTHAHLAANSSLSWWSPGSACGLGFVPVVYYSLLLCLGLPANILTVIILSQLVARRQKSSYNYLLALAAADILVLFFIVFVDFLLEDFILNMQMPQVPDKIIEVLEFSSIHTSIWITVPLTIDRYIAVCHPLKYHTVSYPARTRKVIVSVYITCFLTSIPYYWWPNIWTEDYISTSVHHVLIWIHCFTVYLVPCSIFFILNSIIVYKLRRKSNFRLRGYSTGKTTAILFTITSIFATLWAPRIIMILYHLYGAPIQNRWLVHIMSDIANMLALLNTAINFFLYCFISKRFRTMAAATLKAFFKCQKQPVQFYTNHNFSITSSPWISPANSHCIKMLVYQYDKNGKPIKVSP
Protocol: (§1) Primary screening and pharmacological characterization of compounds were performed using a CHO-K1 cell line that stably expresses human GPR139 (GPR139-CHOk1). The GPR139-CHOk1 cell line was kindly provided by H. Lundbeck A/S, Denmark[24]. GPR139-CHOk1 cells were grown in Ham’s F-12 Kaighn’s Modification Medium (ThermoFisher #21127030) supplemented with 10% dialyzed fetal bovine serum (US origin, ThermoFisher #26400044), 100 units/mL Penicillin-Streptomycin (ThermoFisher #15140122), and 1 mg/mL Geneticin (ThermoFisher #11811031). […] M1R-CHOk1 cells were purchased from The Missouri S&T cDNA Resource Center (#CEM100TN00). M1R-CHOk1 cells were grown in Ham’s F12 Medium (ThermoFisher #21765029) supplemented with 10% fetal bovine serum (Brazilian origin, ThermoFisher #10270106), 100 units/mL Penicillin-Streptomycin, and 0.25 mg/mL Geneticin. HEK293A cells transiently transfected with GPR139 were used for additional pharmacological assessment of signaling pathways activated by GPR139. HEK239A cells were generously provided by Dr. Asuka Inoue, Tohoku University, Japan. HEK293A cells were grown in Dulbecco’s Modified Eagle Medium (ThermoFisher #31966047) supplemented with 10% dialyzed fetal bovine serum and 100 units/mL Penicillin-Streptomycin. Cell lines were maintained at 37 °C in humidified incubator equilibrated with 5% CO2.
(§2) The G protein dissociation assay developed by the lab of Kirill A. Martemyanov was used to measure the coupling of multiple G proteins by GPR139[57]. The assay was performed as described previously with minor modifications. HEK293A cells were reverse transfected 20–24 h prior to assay. 50,000 cells were plated in each well of white opaque tissue culture treated 96-well plates (PerkinElmer #6005680) previously coated with poly-D-lysine. Transfection solutions were prepared as described, and 10 µL transfection solution was mixed with 100 µL cells in each well. The cells in each well were transfected with 18.9 ng GPR139, 6.3 ng Venus 1-155 Gγ2, 6.3 ng Venus 159-239 Gβ1, 6.3 ng masGRK3ct-NanoLuc and 12.6 ng Gαi2, 12.6 ng Gαi3, 12.6 ng GαoA, 12.6 ng Gαq or 25.2 ng Gα12 using 375 nL Lipofectamine 2000 Transfection Reagent. Transfections with Gαq and Gα12 contained 6.3 ng DNA of the active subunit S1 of pertussis toxin (PTX-S1). Each transfection was normalized to 150 ng total DNA with pcDNA3.1. The BRET biosensors were a kind gift from the Martemyanov lab. On the day of the experiment the cells were washed with HEPES buffer. Test compounds were diluted in HEPES buffer from DMSO stocks (final DMSO concentration of maximally 0.3%). NanoLuc Luciferase substrate NanoGlo—furimazine (Promega #N1120) was diluted 1000-fold (final) in HEPES buffer. NanoGlo and test compounds were added, and measurements were performed after 10 s for Gi3, 15 s for Gi2 and GoA, 20 s for Gq, and 90 s for G12—the timepoint where maximal signal occurred with each G protein, ensuring proper determination of the potency for the G protein coupling. Simultaneous dual emission was measured at 535 nm and 475 nm on LUMIstar Omega Microplate Reader (BMG Labtech) at room temperature. The BRET ratio of 535 nm/475 nm (Venus/NanoLuc), reflecting the dissociation of the G protein heterotrimer, was used to determine the G protein activation. The basal BRET ratio obtained with buffer condition was subtracted from the absolute BRET ratio at a given test compound concentration, and the responses were normalized to the one obtained with 10 µM JNJ-63533054 for the activation of Gi2.
(§3) Pharmacological data and statistical analyses were performed in GraphPad Prism v9–10 (Graphpad Software Inc., San Diego, CA), which are also specifically described in the figure and table legends. […]

GPR139 (GoA activation) = target: T2, GPR139 (GoA activation) (Homo sapiens, UniProt Q6DWJ6); test: BRET G protein activation (dissociation) assay, GoA, HEK293A; format: cell-based; conditions: for Emax: HEK293-A, normalized to JNJ-63533054 (JNJ(S)); for EC50: Supplementary Table 6; for G protein activation, GoA: individual replicates
T2 construct: expressed in transfected cells; host or cells: HEK293A (transient, Lipofectamine 2000)
T2 sequence (Q6DWJ6 1-353): T1 sequence (Q6DWJ6 1-353)
Protocol: as §1, §2, §3

Compound | Emax (GPR139 (Gi2 activation)) [%] | EC50 (GPR139 (Gi2 activation)) [nM] | G protein activation, Gi2 (GPR139 (Gi2 activation); log [compound] M -4.5) | G protein activation, Gi2 (GPR139 (Gi2 activation); log [compound] M -5.0) | G protein activation, Gi2 (GPR139 (Gi2 activation); log [compound] M -5.5) | G protein activation, Gi2 (GPR139 (Gi2 activation); log [compound] M -6.0) | G protein activation, Gi2 (GPR139 (Gi2 activation); log [compound] M -6.5) | G protein activation, Gi2 (GPR139 (Gi2 activation); log [compound] M -7.0) | G protein activation, Gi2 (GPR139 (Gi2 activation); log [compound] M -7.5) | G protein activation, Gi2 (GPR139 (Gi2 activation); log [compound] M -8.0) | Emax (GPR139 (GoA activation)) [%] | EC50 (GPR139 (GoA activation)) [nM] | G protein activation, GoA (GPR139 (GoA activation); log [compound] M -4.5) | G protein activation, GoA (GPR139 (GoA activation); log [compound] M -5.0) | G protein activation, GoA (GPR139 (GoA activation); log [compound] M -5.5) | G protein activation, GoA (GPR139 (GoA activation); log [compound] M -6.0) | G protein activation, GoA (GPR139 (GoA activation); log [compound] M -6.5) | G protein activation, GoA (GPR139 (GoA activation); log [compound] M -7.0) | G protein activation, GoA (GPR139 (GoA activation); log [compound] M -7.5) | G protein activation, GoA (GPR139 (GoA activation); log [compound] M -8.0)
Cc1cscc1-c1nc(CC(=O)N[C@H](C)c2ccccc2)no1 [1.1(R)] | 88 ± 11 | 794 | 74 % of JNJ-63533054 at Gi2 and 72 % of JNJ-63533054 at Gi2 and 95 % of JNJ-63533054 at Gi2 | 74 % of JNJ-63533054 at Gi2 and 67 % of JNJ-63533054 at Gi2 and 91 % of JNJ-63533054 at Gi2 | 63 % of JNJ-63533054 at Gi2 and 47 % of JNJ-63533054 at Gi2 and 77 % of JNJ-63533054 at Gi2 | 51 % of JNJ-63533054 at Gi2 and 35 % of JNJ-63533054 at Gi2 and 64 % of JNJ-63533054 at Gi2 | 30 % of JNJ-63533054 at Gi2 and 18 % of JNJ-63533054 at Gi2 and 40 % of JNJ-63533054 at Gi2 | 9 % of JNJ-63533054 at Gi2 and 1.06 % of JNJ-63533054 at Gi2 and 24 % of JNJ-63533054 at Gi2 | 6 % of JNJ-63533054 at Gi2 and -1.09 % of JNJ-63533054 at Gi2 and 22 % of JNJ-63533054 at Gi2 | -2.65 % of JNJ-63533054 at Gi2 and -5 % of JNJ-63533054 at Gi2 and 18 % of JNJ-63533054 at Gi2 | 75 ± 3 | 794 | 74 % of JNJ-63533054 at Gi2 and 67 % of JNJ-63533054 at Gi2 and 78 % of JNJ-63533054 at Gi2 | 69 % of JNJ-63533054 at Gi2 and 63 % of JNJ-63533054 at Gi2 and 75 % of JNJ-63533054 at Gi2 | 62 % of JNJ-63533054 at Gi2 and 48 % of JNJ-63533054 at Gi2 and 61 % of JNJ-63533054 at Gi2 | 47 % of JNJ-63533054 at Gi2 and 34 % of JNJ-63533054 at Gi2 and 45 % of JNJ-63533054 at Gi2 | 19 % of JNJ-63533054 at Gi2 and 16 % of JNJ-63533054 at Gi2 and 26 % of JNJ-63533054 at Gi2 | 7.39 % of JNJ-63533054 at Gi2 and 4 % of JNJ-63533054 at Gi2 and 10 % of JNJ-63533054 at Gi2 | 0.895 % of JNJ-63533054 at Gi2 and 2 % of JNJ-63533054 at Gi2 and 3.63 % of JNJ-63533054 at Gi2 | -4.44 % of JNJ-63533054 at Gi2 and -2.19 % of JNJ-63533054 at Gi2 and 2.68 % of JNJ-63533054 at Gi2
Cc1cscc1-c1nc(CC(=O)N[C@@H](C)c2ccccc2)no1 [1.1(S)] | 95 ± 5 | 50.1 | 94 % of JNJ-63533054 at Gi2 (2×) and 104 % of JNJ-63533054 at Gi2 | 90 % of JNJ-63533054 at Gi2 (2×) and 104 % of JNJ-63533054 at Gi2 | 86 % of JNJ-63533054 at Gi2 and 80 % of JNJ-63533054 at Gi2 and 99 % of JNJ-63533054 at Gi2 | 86 % of JNJ-63533054 at Gi2 and 80 % of JNJ-63533054 at Gi2 and 99 % of JNJ-63533054 at Gi2 | 82 % of JNJ-63533054 at Gi2 and 74 % of JNJ-63533054 at Gi2 and 89 % of JNJ-63533054 at Gi2 | 63 % of JNJ-63533054 at Gi2 and 57 % of JNJ-63533054 at Gi2 and 72 % of JNJ-63533054 at Gi2 | 36 % of JNJ-63533054 at Gi2 and 35 % of JNJ-63533054 at Gi2 and 49 % of JNJ-63533054 at Gi2 | 14 % of JNJ-63533054 at Gi2 and 11 % of JNJ-63533054 at Gi2 and 32 % of JNJ-63533054 at Gi2 | 96 ± 3 | 63.1 | 105 % of JNJ-63533054 at Gi2 and 96 % of JNJ-63533054 at Gi2 and 101 % of JNJ-63533054 at Gi2 | 96 % of JNJ-63533054 at Gi2 and 86 % of JNJ-63533054 at Gi2 and 97 % of JNJ-63533054 at Gi2 | 94 % of JNJ-63533054 at Gi2 and 83 % of JNJ-63533054 at Gi2 and 96 % of JNJ-63533054 at Gi2 | 93 % of JNJ-63533054 at Gi2 and 78 % of JNJ-63533054 at Gi2 and 92 % of JNJ-63533054 at Gi2 | 83 % of JNJ-63533054 at Gi2 and 70 % of JNJ-63533054 at Gi2 and 76 % of JNJ-63533054 at Gi2 | 62 % of JNJ-63533054 at Gi2 and 52 % of JNJ-63533054 at Gi2 and 61 % of JNJ-63533054 at Gi2 | 34 % of JNJ-63533054 at Gi2 and 29 % of JNJ-63533054 at Gi2 and 31 % of JNJ-63533054 at Gi2 | 11 % of JNJ-63533054 at Gi2 and 8 % of JNJ-63533054 at Gi2 and 13 % of JNJ-63533054 at Gi2
